# Experimental data reported in patent US10357036B2, “Compounds for controlling arthropods” (priority 2015, dated 2019).
# Key:
# Myzus persicae = Myzus persicae spray test (Chinese cabbage leaf discs); assay type: in vivo; details: 100 g/ha; after 6 days
# Procedure: (§1) After 6 days, the efficacy in % is determined.
# Spodoptera frugiperda = Spodoptera frugiperda spray test; assay type: in vivo; details: 100 g/ha; after 7 days
# Tetranychus urticae = Tetranychus urticae spray test, OP-resistant (bean leaf discs); assay type: in vivo; details: 100 g/ha; after 6 days
# Procedure: as §1
# Phaedon cochleariae = Phaedon cochleariae spray test; details: 100 g/ha; after 7 days
# Ctenocephalides felis [1] = experiment: Ctenocephalides felis in vitro contact test with adult cat fleas; assay type: in vivo; details: application rate 5 μg/cm^2 (=500 g/ha); after 48 h; dead or moribund fleas
# Procedure: (§2) For the coating of the test tubes, 9 mg of active ingredient are first dissolved in 1 ml of acetone p.a. and then diluted to the desired concentration with acetone p.a. 250 μl of the solution are distributed homogeneously on the inner walls and the base of a 25 ml glass tube by turning and rocking on an orbital shaker (rocking rotation at 30 rpm for 2 h). With 900 ppm of active ingredient solution and internal surface area 44.7 cm^2, given homogeneous distribution, an area-based dose of 5 μg/cm^2 is achieved.
# After the solvent has evaporated off, the tubes are populated with 5-10 adult cat fleas (Ctenocephalides felis), sealed with a perforated plastic lid and incubated in a horizontal position at room temperature and ambient humidity. After 48 h, efficacy is determined. To this end, the tubes are stood upright and the fleas are knocked to the base of the tube. Fleas which remain motionless at the base or move in an uncoordinated manner are considered to be dead or moribund.
# 100% efficacy means that all the fleas were dead or moribund. 0% efficacy means that no fleas were harmed.
# Rhipicephalus sanguineus = Rhipicephalus sanguineus in vitro contact test with adult brown dog ticks; assay type: in vivo; details: after 48 h
# Procedure: as §2
# After the solvent has evaporated off, the tubes are populated with 5-10 adult dog ticks (Rhipicephalus sanguineus), sealed with a perforated plastic lid and incubated in a horizontal position in the dark at room temperature and ambient humidity. After 48 h, efficacy is determined. To this end, the ticks are knocked to the base of the tube and incubated on a hotplate at 45-50° C. for not more than 5 min. Ticks which remain motionless on the base or move in such an uncoordinated manner that they are unable to deliberately avoid the heat by climbing upwards are considered to be dead or moribund.
# An efficacy of 100% means that all the ticks were dead or moribund. 0% efficacy means that none of the ticks were harmed.
# Boophilus microplus = Boophilus microplus injection test; assay type: in vivo; details: 20 μg/animal; assessed after 7 days
# Procedure: (§3) • Solvent: dimethyl sulfoxide
# 1 μl of the active ingredient solution is injected into the abdomen of 5 engorged adult female cattle ticks (Boophilus microplus). The animals are transferred into dishes and kept in a climate-controlled room.
# Ctenocephalides felis [2] = experiment: Ctenocephalides felis oral test; assay type: in vivo; details: 100 ppm in citrated cattle blood; after 2 days
# Procedure: • Solvent: Dimethyl Sulfoxide
# To produce a suitable active ingredient formulation, 10 mg of active ingredient are mixed with 0.5 ml of dimethyl sulfoxide. Dilution with citrated cattle blood gives the desired concentration.
# About 20 unfed adult cat fleas (Ctenocephalides fells) are placed into a chamber which is closed at the top and bottom with gauze. A metal cylinder whose bottom end is closed with parafilm is placed onto the chamber. The cylinder contains the blood/active ingredient formulation, which can be imbibed by the fleas through the parafilm membrane.
# Musca domestica = Musca domestica test; assay type: in vivo; details: 100 ppm; adult houseflies; after 2 days
# Procedure: as §3
# To produce a suitable active ingredient formulation, 10 mg of active ingredient are mixed with 0.5 ml of dimethyl sulfoxide, and the concentrate is diluted with water to the desired concentration.
# Vessels containing a sponge treated with sugar solution and the active ingredient formulation of the desired concentration are populated with 10 adult houseflies (Musca domestica).
# [3] = application rate 5 μg/cm^2 (=500 g/ha), dead or moribund ticks
SMILES,efficacy (Myzus persicae) [%],efficacy (Spodoptera frugiperda) [%],efficacy (Tetranychus urticae) [%],efficacy (Phaedon cochleariae) [%],efficacy (Ctenocephalides felis [1]) [%],efficacy (Rhipicephalus sanguineus; [3]) [%],efficacy (laying of fertile eggs) (Boophilus microplus) [%],efficacy (rate of extermination) (Ctenocephalides felis [2]) [%],efficacy (rate of extermination) (Musca domestica) [%],efficacy (Rhipicephalus sanguineus; application rate 1 μg/cm^2 (=100 g/ha)) [%]
CCC(=O)N(C)Cc1cc(-c2cnn(-c3c(Cl)cc(C(F)(C(F)(F)F)C(F)(F)F)cc3OC(F)(F)F)c2)cnc1Cl [Ia-135],90,100,100,100,–,–,–,–,–,–
CC(=O)N(C)Cc1cc(-c2cnn(-c3c(Cl)cc(C(F)(C(F)(F)F)C(F)(F)F)cc3OC(F)(F)F)c2)ccc1F [Ia-63],–,100,100,100,100,80,100,100,100,–
O=C(NCc1cc(-c2cnn(-c3c(Cl)cc(C(F)(C(F)(F)F)C(F)(F)F)cc3OC(F)F)c2)ccc1Cl)C1CC1 [Ia-52],–,100,–,100,100,100,100,100,100,–
O=C(NCc1cc(-c2cnn(-c3c(Cl)cc(C(F)(C(F)(F)F)C(F)(F)F)cc3C(F)(F)F)c2)ccc1Cl)C1CC1 [Ia-54],–,100,–,100,80,100,100,100,100,–
CCC(=O)N(C)Cc1cc(-c2cnn(-c3c(Cl)cc(C(F)(C(F)(F)F)C(F)(F)F)cc3Cl)c2)ccc1Cl [Ia-32],–,100,100,100,100,80,100,100,–,–
CC(=O)NCc1cc(-c2cnn(-c3c(Cl)cc(C(F)(C(F)(F)F)C(F)(F)F)cc3C(F)(F)F)c2)cnc1Cl [Ia-139],–,100,90,100,100,100,100,100,100,–
CC(=O)NCc1cc(-c2cnn(-c3c(Cl)cc(C(F)(C(F)(F)F)C(F)(F)F)cc3C(F)(F)F)c2)ccc1F [Ia-82],–,100,100,100,100,100,100,100,100,–
CCC(=O)NCc1cc(-c2cnn(-c3c(Cl)cc(C(F)(C(F)(F)F)C(F)(F)F)cc3Cl)c2)ccc1Cl [Ia-16],–,100,–,100,100,100,100,100,100,–
CC(=O)NCc1cc(-c2cnn(-c3c(Cl)cc(C(F)(C(F)(F)F)C(F)(F)F)cc3S(C)(=O)=O)c2)ccc1F [Ia-11],100,–,100,100,–,100,100,100,100,–
CCC(=O)NCc1cccc(-c2cnn(-c3c(Cl)cc(C(F)(C(F)(F)F)C(F)(F)F)cc3OC(F)F)c2)c1F [Ia-159],90,100,–,100,–,–,100,100,100,–
CCC(=O)NCc1cc(-c2cnn(-c3c(Cl)cc(C(F)(C(F)(F)F)C(F)(F)F)cc3Cl)c2)ccc1F [Ia-30],–,100,–,–,100,100,100,100,100,–
CCC(=O)NC1CCc2ccc(-c3cnn(-c4c(Cl)cc(C(F)(C(F)(F)F)C(F)(F)F)cc4OC(F)F)c3)cc21 (stereo not shown) [I-Tc-03],–,100,100,–,100,100,100,100,–,–
CCC(=O)NCc1cccc(-c2cnn(-c3c(Cl)cc(C(F)(C(F)(F)F)C(F)(F)F)cc3Cl)c2)c1F [Ia-152],100,100,–,100,–,–,100,100,100,–
O=C(NCc1cc(-c2cnn(-c3c(Cl)cc(C(F)(C(F)(F)F)C(F)(F)F)cc3C(F)F)c2)ccc1F)C1CC1 [Ia-58],70,100,100,100,–,–,–,–,–,–
CCC(=O)NCc1cccc(-c2cnn(-c3c(C)cc(C(F)(C(F)(F)F)C(F)(F)F)cc3Cl)c2)c1 [Ia-69],–,100,–,100,100,–,100,100,100,80
CC(=O)NCc1cccc(-c2cnn(-c3c(Cl)cc(C(F)(C(F)(F)F)C(F)(F)F)cc3OC(F)F)c2)c1F [Ia-155],90,100,–,100,–,–,100,100,100,–
CC(=O)NCc1cc(-c2cnn(-c3c(Cl)cc(C(F)(C(F)(F)F)C(F)(F)F)cc3OC(F)F)c2)cnc1Cl [Ia-156],90,100,100,100,–,–,–,–,–,–
CCC(=O)NCc1cc(-c2cnn(-c3c(Cl)cc(C(F)(C(F)(F)F)C(F)(F)F)cc3C(F)F)c2)cnc1Cl [Ia-154],90,100,100,100,–,–,–,–,–,–
CC(=O)N(C)Cc1cc(-c2cnn(-c3c(Cl)cc(C(F)(C(F)(F)F)C(F)(F)F)cc3Cl)c2)ccc1Cl [Ia-20],–,100,100,100,100,80,100,100,90,–
Cc1cc(C(F)(C(F)(F)F)C(F)(F)F)cc(Cl)c1-n1cc(-c2ccc(F)c(CNC(=O)C3CC3)c2)cn1 [Ia-67],–,100,100,100,80,80,100,100,100,–
CC(=O)N(Cc1cc(-c2cnn(-c3c(Cl)cc(C(F)(C(F)(F)F)C(F)(F)F)cc3Cl)c2)ccc1Cl)CC1CC1 [Ia-116],–,100,100,100,100,80,100,100,100,–
CC(=O)NCc1cc(-c2cnn(-c3c(Cl)cc(C(F)(C(F)(F)F)C(F)(F)F)cc3C#N)c2)ccc1Cl [Ia-104],–,100,100,100,100,100,100,100,100,–
CCC(=O)NCc1cc(-c2cnn(-c3c(Cl)cc(C(F)(C(F)(F)F)C(F)(F)F)cc3C(F)(F)F)c2)cnc1Cl [Ia-138],90,100,90,100,–,–,–,–,–,–
